Measurements as given in ChEMBL document CHEMBL4000244, “Probing A-form DNA: A fluorescent aminosugar probe and dual recognition by anthraquinone-neomycin conjugates” (Bioorg Med Chem, 2017).

Key:
[1] = Binding affinity to 5'-GGCCCCGG-3' DNA hairpin assessed as change in fluorescence intensity at 1 uM after 45 mins by fluorescence quenching analysis relative to control
[2] = Binding affinity to 5'-GCCCCCGC-3' DNA hairpin assessed as change in fluorescence intensity at 1 uM after 45 mins by fluorescence quenching analysis relative to control
[3] = Binding affinity to 5'-GGCCCGGG-3' DNA hairpin assessed as change in fluorescence intensity at 1 uM after 45 mins by fluorescence quenching analysis relative to control
[4] = Binding affinity to 5'-GGGGGGGG-3' DNA hairpin assessed as change in fluorescence intensity at 1 uM after 45 mins by fluorescence quenching analysis relative to control
[5] = Binding affinity to 5'-CCCCCGGG-3' DNA hairpin assessed as change in fluorescence intensity at 1 uM after 45 mins by fluorescence quenching analysis relative to control
[6] = Binding affinity to 5'-CGGGCCCC-3' DNA hairpin assessed as change in fluorescence intensity at 1 uM after 45 mins by fluorescence quenching analysis relative to control
[7] = Binding affinity to 5'-CGCCCCGC-3' DNA hairpin assessed as change in fluorescence intensity at 1 uM after 45 mins by fluorescence quenching analysis relative to control
[8] = Binding affinity to 5'-CCGGCCCC-3' DNA hairpin assessed as change in fluorescence intensity at 1 uM after 45 mins by fluorescence quenching analysis relative to control
[9] = Binding affinity to 5'-CCCGGCGG-3' DNA hairpin assessed as change in fluorescence intensity at 1 uM after 45 mins by fluorescence quenching analysis relative to control
[10] = Binding affinity to 5'-CGGGGCCC-3' DNA hairpin assessed as change in fluorescence intensity at 1 uM after 45 mins by fluorescence quenching analysis relative to control
[11] = Binding affinity to 5'-CCCGGCCC-3' DNA hairpin assessed as change in fluorescence intensity at 1 uM after 45 mins by fluorescence quenching analysis relative to control
[12] = Binding affinity to 5'-CGGCCGGG-3' DNA hairpin assessed as change in fluorescence intensity at 1 uM after 45 mins by fluorescence quenching analysis relative to control
[13] = Binding affinity to 5'-CGCCCGCC-3' DNA hairpin assessed as change in fluorescence intensity at 1 uM after 45 mins by fluorescence quenching analysis relative to control
[14] = Binding affinity to 5'-GCCGGGGG-3' DNA hairpin assessed as change in fluorescence intensity at 1 uM after 45 mins by fluorescence quenching analysis relative to control
[15] = Binding affinity to 5'-CGGCGCGG-3' DNA hairpin assessed as change in fluorescence intensity at 1 uM after 45 mins by fluorescence quenching analysis relative to control
[16] = Binding affinity to 5'-GCGGGGCG-3' DNA hairpin assessed as change in fluorescence intensity at 1 uM after 45 mins by fluorescence quenching analysis relative to control
[17] = Binding affinity to 5'-GCGCGCGC-3' DNA hairpin assessed as change in fluorescence intensity at 1 uM after 45 mins by fluorescence quenching analysis relative to control
[18] = Binding affinity to 5'-GCCGGCCG-3' DNA hairpin assessed as change in fluorescence intensity at 1 uM after 45 mins by fluorescence quenching analysis relative to control
[19] = Binding affinity to 5'-GGCCGGGC-3' DNA hairpin assessed as change in fluorescence intensity at 1 uM after 45 mins by fluorescence quenching analysis relative to control
[20] = Binding affinity to 5'-CCCGCCCG-3' DNA hairpin assessed as change in fluorescence intensity at 1 uM after 45 mins by fluorescence quenching analysis relative to control
[21] = Binding affinity to 5'-CGCCCGGC-3' DNA hairpin assessed as change in fluorescence intensity at 1 uM after 45 mins by fluorescence quenching analysis relative to control
[22] = Binding affinity to 5'-GCGCCGGG-3' DNA hairpin assessed as change in fluorescence intensity at 1 uM after 45 mins by fluorescence quenching analysis relative to control
[23] = Binding affinity to 5'-CGGCCGCC-3' DNA hairpin assessed as change in fluorescence intensity at 1 uM after 45 mins by fluorescence quenching analysis relative to control
[24] = Binding affinity to 5'-GGCGGGCG-3' DNA hairpin assessed as change in fluorescence intensity at 1 uM after 45 mins by fluorescence quenching analysis relative to control
[25] = Binding affinity to 5'-CGCCGGCC-3' DNA hairpin assessed as change in fluorescence intensity at 1 uM after 45 mins by fluorescence quenching analysis relative to control
[26] = Binding affinity to 5'-CCGCCCGC-3' DNA hairpin assessed as change in fluorescence intensity at 1 uM after 45 mins by fluorescence quenching analysis relative to control
[27] = Binding affinity to 5'-CGGGCGCG-3' DNA hairpin assessed as change in fluorescence intensity at 1 uM after 45 mins by fluorescence quenching analysis relative to control
[28] = Binding affinity to 5'-CCGCCCCG-3' DNA hairpin assessed as change in fluorescence intensity at 1 uM after 45 mins by fluorescence quenching analysis relative to control
[29] = Binding affinity to 5'-GCCGGGCG-3' DNA hairpin assessed as change in fluorescence intensity at 1 uM after 45 mins by fluorescence quenching analysis relative to control
[30] = Binding affinity to 5'-GCGGCGCC-3' DNA hairpin assessed as change in fluorescence intensity at 1 uM after 45 mins by fluorescence quenching analysis relative to control
[31] = Binding affinity to 5'-CCGCGCCC-3' DNA hairpin assessed as change in fluorescence intensity at 1 uM after 45 mins by fluorescence quenching analysis relative to control
[32] = Binding affinity to 5'-CCGCCCGG-3' DNA hairpin assessed as change in fluorescence intensity at 1 uM after 45 mins by fluorescence quenching analysis relative to control
[33] = Binding affinity to 5'-CCGCGCGC-3' DNA hairpin assessed as change in fluorescence intensity at 1 uM after 45 mins by fluorescence quenching analysis relative to control
[34] = Binding affinity to 5'-CCGGCCGC-3' DNA hairpin assessed as change in fluorescence intensity at 1 uM after 45 mins by fluorescence quenching analysis relative to control
[35] = Binding affinity to 5'-GGGCGCGC-3' DNA hairpin assessed as change in fluorescence intensity at 1 uM after 45 mins by fluorescence quenching analysis relative to control
[36] = Binding affinity to 5'-GGGCGCCC-3' DNA hairpin assessed as change in fluorescence intensity at 1 uM after 45 mins by fluorescence quenching analysis relative to control

Activity [1]: 20.2%
Activity [2]: 23.6%
Activity [3]: 26.7%
Activity [4]: 27.2%
Activity [5]: 35.1%
Activity [6]: 35.1%
Activity [7]: 38%
Activity [8]: 39.4%
Activity [9]: 39.8%
Activity [10]: 40.4%
Activity [11]: 40.8%
Activity [12]: 41.4%
Activity [13]: 42%
Activity [14]: 42.5%
Activity [15]: 43.2%
Activity [16]: 45.2%
Activity [17]: 45.2%
Activity [18]: 45.3%
Activity [19]: 45.6%
Activity [20]: 46.5%
Activity [21]: 46.6%
Activity [22]: 46.9%
Activity [23]: 47.7%
Activity [24]: 48.3%
Activity [25]: 48.6%
Activity [26]: 48.7%
Activity [27]: 48.7%
Activity [28]: 49.3%
Activity [29]: 49.7%
Activity [30]: 49.9%
Activity [31]: 52.4%
Activity [32]: 56.8%
Activity [33]: 57.5%
Activity [34]: 57.7%
Activity [35]: 58.3%
Activity [36]: 65.9%
Compound: NCC1O[C@H](O[C@H]2[C@@H](O)[C@H](O[C@@H]3[C@@H](O)[C@H](N)C[C@H](N)[C@H]3O[C@H]3O[C@H](CN)[C@@H](O)[C@H](O)[C@H]3N)O[C@@H]2CSCCNC(=O)CCSCC(=O)Nc2ccc(-c3c4ccc(=O)cc-4oc4cc(O)ccc34)c(C(=O)O)c2)[C@H](N)[C@@H](O)[C@@H]1O (stereo partly specified)
